Test results as given in the supplement of paper PMC10307832.

Tests used:
Experiment in all cases: relative viability (nuclei count vs DMSO), 5 days (fraction); higher = more cells survive
[1] = compound: COc1ccc(-c2ccc3c(N4CCOC[C@@H]4C)nc(N4CCOC[C@@H]4C)nc3n2)cc1CO [AZD8055] + NC(=O)Nc1cc(-c2cccc(F)c2)sc1C(=O)N[C@H]1CCCNC1 [AZD7762] (partner 0.2 µM)
Method in brief: (§1)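 Lung cancer cell lines in 1536-well plates got either a single drug or a fixed anchor-drug dose together with five library-drug doses (not always all listed) in √10 steps, by pin tool, on the day after seeding. Nuclei were counted after 5 days, and relative viability is the treated-to-vehicle ratio of nuclei counts. Values are medians of duplicate plates.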

[2] = compound: COc1ccc(-c2ccc3c(N4CCOC[C@@H]4C)nc(N4CCOC[C@@H]4C)nc3n2)cc1CO [AZD8055] + CC(C)C[C@H](NC(=O)[C@H](Cc1ccccc1)NC(=O)c1cnccn1)B(O)O [Bortezomib] (partner 0.002 µM)
Method in brief: as §1

[3] = compound: COc1ccc(-c2ccc3c(N4CCOC[C@@H]4C)nc(N4CCOC[C@@H]4C)nc3n2)cc1CO [AZD8055] + CS(=O)(=O)N1CCN(Cc2cc3nc(-c4cccc5[nH]ncc45)nc(N4CCOCC4)c3s2)CC1 [Pictilisib] (partner 1 µM)
Method in brief: as §1

[4] = compound: COc1ccc(-c2ccc3c(N4CCOC[C@@H]4C)nc(N4CCOC[C@@H]4C)nc3n2)cc1CO [AZD8055] + C[C@]1(O)C[C@@H](c2nc(-c3ccc4ccc(-c5ccccc5)nc4c3)c3c(N)nccn32)C1 [Linsitinib] (partner 1 µM)
Method in brief: as §1

[5] = compound: COc1ccc(-c2ccc3c(N4CCOC[C@@H]4C)nc(N4CCOC[C@@H]4C)nc3n2)cc1CO [AZD8055] + O=C(c1cc(Cc2n[nH]c(=O)c3ccccc23)ccc1F)N1CCN(C(=O)C2CC2)CC1 [Olaparib] (partner 8 µM)
Method in brief: as §1

[6] = compound: COc1ccc(-c2ccc3c(N4CCOC[C@@H]4C)nc(N4CCOC[C@@H]4C)nc3n2)cc1CO [AZD8055] + C[C@@H](Oc1cc(-c2cnn(C3CCNCC3)c2)cnc1N)c1c(Cl)ccc(F)c1Cl [Crizotinib] (partner 1 µM)
Method in brief: as §1

[7] = compound: COc1ccc(-c2ccc3c(N4CCOC[C@@H]4C)nc(N4CCOC[C@@H]4C)nc3n2)cc1CO [AZD8055] + CC1(C)CCC(c2ccc(Cl)cc2)=C(CN2CCN(c3ccc(C(=O)NS(=O)(=O)c4ccc(N[C@H](CCN5CCOCC5)CSc5ccccc5)c(S(=O)(=O)C(F)(F)F)c4)cc3)CC2)C1 [Navitoclax] (partner 0.5 µM)
Method in brief: as §1

[8] = compound: COc1ccc(-c2ccc3c(N4CCOC[C@@H]4C)nc(N4CCOC[C@@H]4C)nc3n2)cc1CO [AZD8055] + COc1cc2c(Oc3ccc(NC(=O)C4(C(=O)Nc5ccc(F)cc5)CC4)cc3F)ccnc2cc1OCCCN1CCOCC1 [Foretinib] (partner 0.25 µM)
Method in brief: as §1

[9] = compound: COc1ccc(-c2ccc3c(N4CCOC[C@@H]4C)nc(N4CCOC[C@@H]4C)nc3n2)cc1CO [AZD8055] + Cc1nc(NC(=O)N2CCC[C@H]2C(N)=O)sc1-c1ccnc(C(C)(C)C(F)(F)F)c1 [Alpelisib] (partner 2 µM)
Method in brief: as §1

[10] = compound: COc1ccc(-c2ccc3c(N4CCOC[C@@H]4C)nc(N4CCOC[C@@H]4C)nc3n2)cc1CO [AZD8055] + CS(=O)(=O)CCNCc1ccc(-c2ccc3ncnc(Nc4ccc(OCc5cccc(F)c5)c(Cl)c4)c3c2)o1 [Lapatinib] (partner 2 µM)
Method in brief: as §1

[11] = compound: COc1ccc(-c2ccc3c(N4CCOC[C@@H]4C)nc(N4CCOC[C@@H]4C)nc3n2)cc1CO [AZD8055]
Method in brief: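 Following overnight incubation at 37 °C, lung cancer cell lines in 1536-well plates were pinned with five library-drug doses (not always all listed) in √10 steps on vehicle-anchored plates. The cells then spent 5 days without medium change before a combined fix, permeabilisation and Hoechst stain, 4× imaging and MetaXpress nuclear counts. Viability is the treated-to-vehicle ratio of nuclei, taken as the median across plates. Only plates with control CV below 25% and at least one doubling passed.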

In the case of NCI-H1703, the relative viability ([1]; first compound 0.01 µM) is reported as 0.127, the relative viability ([1]; first compound 0.03162 µM) is reported as 0.125 and the relative viability ([1]; first compound 0.1 µM) is reported as 0.115. For the same cell line, the relative viability ([1]; first compound 0.3162 µM) was 0.115, the relative viability ([1]; first compound 1 µM) was 0.095 and the relative viability ([2]; first compound 0.01 µM) was 0.278. The relative viability ([2]; first compound 0.03162 µM) was 0.231, the relative viability ([2]; first compound 0.1 µM) was 0.18 and the relative viability ([2]; first compound 0.3162 µM) was 0.181. The relative viability ([2]; first compound 1 µM) was 0.194, the relative viability ([3]; first compound 0.01 µM) was 0.24 and the relative viability ([3]; first compound 0.03162 µM) was 0.263. It also gave a relative viability ([3]; first compound 0.1 µM) of 0.257, a relative viability ([3]; first compound 0.3162 µM) of 0.232 and a relative viability ([3]; first compound 1 µM) of 0.255. It also gave a relative viability ([4]; first compound 0.01 µM) of 0.514, a relative viability ([4]; first compound 0.03162 µM) of 0.576 and a relative viability ([4]; first compound 0.1 µM) of 0.623. The relative viability ([4]; first compound 0.3162 µM) was 0.102, the relative viability ([4]; first compound 1 µM) was 0.29 and the relative viability ([5]; first compound 0.01 µM) was 0.751. For the same cell line, the relative viability ([5]; first compound 0.03162 µM) was 0.279, the relative viability ([5]; first compound 0.1 µM) was 0.326 and the relative viability ([5]; first compound 0.3162 µM) was 0.232. The relative viability ([5]; first compound 1 µM) was 0.182, the relative viability ([6]; first compound 0.01 µM) was 0.635 and the relative viability ([6]; first compound 0.03162 µM) was 0.489. For the same cell line, the relative viability ([6]; first compound 0.1 µM) was 0.508, the relative viability ([6]; first compound 0.3162 µM) was 0.4 and the relative viability ([6]; first compound 1 µM) was 0.222. For the same cell line, the relative viability ([7]; first compound 0.01 µM) was 0.944, the relative viability ([7]; first compound 0.03162 µM) was 0.702 and the relative viability ([7]; first compound 0.1 µM) was 0.517. The relative viability ([7]; first compound 0.3162 µM) was 0.292, the relative viability ([7]; first compound 1 µM) was 0.337 and the relative viability ([8]; first compound 0.01 µM) was 0.34. It also gave a relative viability ([8]; first compound 0.03162 µM) of 0.32, a relative viability ([8]; first compound 0.1 µM) of 0.306 and a relative viability ([8]; first compound 0.3162 µM) of 0.301. For the same cell line, the relative viability ([8]; first compound 1 µM) was 0.226, the relative viability ([9]; first compound 0.01 µM) was 0.328 and the relative viability ([9]; first compound 0.03162 µM) was 0.297. The relative viability ([9]; first compound 0.1 µM) was 0.237, the relative viability ([9]; first compound 0.3162 µM) was 0.219 and the relative viability ([9]; first compound 1 µM) was 0.318. It also gave a relative viability ([10]; first compound 0.01 µM) of 0.798, a relative viability ([10]; first compound 0.03162 µM) of 0.726 and a relative viability ([10]; first compound 0.1 µM) of 0.879. The relative viability ([10]; first compound 0.3162 µM) was 0.427, the relative viability ([10]; first compound 1 µM) was 0.313 and the relative viability ([11]; 0.01 µM) was 0.822. For the same cell line, the relative viability ([11]; 0.03162 µM) was 0.715, the relative viability ([11]; 0.1 µM) was 0.634 and the relative viability ([11]; 0.3162 µM) was 0.265. The relative viability ([11]; 1 µM) was 0.332.
